EC50 data for eight compounds are collected here from patent US20030176494A1, “Novel coumarin and chromene compounds and methods of preparation and use thereof for treating or preventing viral infections” (priority 2001, published 2003).

Assay [1] has as its system HIV. Nature of the assay: Anti-HIV evaluation by MTT-tetrazolium method (inhibition of CPE in MT-2 / CEM-SS cells). In kind it is cell-based. The note with it: Human immunodeficiency virus 1, CEM-SS; read-out: Antiviral Activities (EC50) HIV. As for the experimental part:
This example illustrates the anti-HIV activity of various coumarin and chromene compounds which were evaluated using the published MTT-tetrazolium methods^8. Retroviral agents AZT and DDC were used as controls for comparison purposes.
The cells used for screening were the MT-2 and the human T4-lymphoblastoid cell line, CEM-SS, and were grown in RPMI 1640 medium supplemented with 10% fetal (v/v) heat-inactivated fetal calf serum and also containing 100 units/mL penicillin, 100 μg/mL streptomycin, 25 mM HEPES and 20 μg/mL gentamicin. The medium used for dilution of drugs and maintenance of cultures during the assay was the same as above. The HTLV-IIIB and HTLV-RF were propagated in CEM-SS. The appropriate amounts of the pure compounds for anti-HIV evaluations were dissolved in DMSO, then diluted in medium to the desired initial concentration. The concentrations (M medium) employed were […]; 0.001 μM; 0.0032 μM; 0.01 μM; 0.032 μM; 0.1 μM; 0.32 μM; 1 μM; 3.2 μM; 10 μM; 32 μM; and 100 μM. Each dilution was added to plates in the amount of 100 μL/well. Drugs were tested in triplicate wells per dilution with infected cells while in duplicate wells per dilution with uninfected cells for evaluation of cytotoxicity. On day 6 (CEM-SS cells) and day 7 (MT-2 cells) post-infection, the viable cells were measured with a tetrazolium salt, MTT (5 mg/mL), added to the test plates. A solution of 20% SDS in 0.001 N HCl is used to dissolve the MTT formazan produced. The optical density value was a function of the amount of formazan produced which was proportional to the number of viable cells. The percent inhibition of CPE per drug concentration was measured as a test over control and expressed in percent (T/C %).
(In general: Formazan colour is commonly taken as a measure of viable cells.)

Assay [2] concerns EBV. Nature of the assay: EBV assay: superinfection of Raji or Daudi cells with P3HR-1, immunofluorescence for EA and VCA. In kind it is cell-based, Epstein-Barr Virus (P3HR-1). The note with it: human gammaherpesvirus 4; read-out: Antiviral Activities (EC50) EBV. From the text: There are two prototypes of infectious EBV. One is exemplified by the virus derived from supernatant fluids of the P3HR-1cell line. This cell line produces nontransforming virus that causes the production of early antigen (EA) after primary infection or superinfection of B cell lines. The other prototype is exemplified by the B-95-8 virus. This virus immortalized cord blood lymphocytes and induced tumors in marmosets. […] The virus used in our assays is P3HR-1.
Ramos is an exceptional B cell line derived from Burkitt's lymphoma tumor but containing no detectable EBV genome copies and is EBNA negative. Ramos/AW was obtained by in vitro infection of Ramos with the P3HR-1 virus and contains one resident EBV genome copy/cell. Raji is a Burkitt's lymphoma cell line containing 60 EBV genomes/cell, and will be the primary cell used for screening antiviral activity against EBV EA expression. Daudi is a low level producer that contains 152 EBV genome copies/cell. It spontaneously expresses EBV EA in 0.25%-0.5% of the cells. It will be used in follow-up studies to confirm activity. These cell lines respond to superinfection by EBV by expressing EA(D), EA(R), and VCA. All cell lines are maintained in RPMI-1640 medium supplemented by 10% FCS, L-glutamine and 100 μg/mL gentamicin. The cultures are fed twice weekly and the cell concentration adjusted to 3×10^5/mL. The cells are kept at 37° C. in a humidified atmosphere with 5% CO2.
Cells are infected with the P3HR-1 strain of EBV and the drugs to be tested are added after adsorption (45 minutes at 37° C.) and washing of the cell cultures. The cultures are incubated for two days in complete medium to allow viral gene expression. Following the 48 hr incubation period, the number of cells of each sample are counted and smears made. Monoclonal antibodies to the different EA components and VCA are then added to the cells incubated and washed. This is followed by a fluorescein conjugated rabbit anti-mouse Ig antibody; and the number of fluorescence positive cells in the smears are counted. The total number of cells in the cultures positive for EA or VCA are then calculated and compared.

The test system of assay [3] is HBV. Nature of the assay: HBV replication in cultures of 2.2.15 cells (HBV DNA blot hybridization). In kind it is cell-based. The note with it: Hepatitis B virus; read-out: Antiviral Activities (EC50) HBV. The procedure:
Test compounds are then added daily for a continuous 9 day period. Culture medium (changed daily during the treatment period) is collected and stored for analysis of extracellular (virion) HBV DNA after 0, 3, 6, and 9 days of treatment. Treated cells are lysed 24 hours following day 9 of treatment for the analysis of intracellular HBV genomic forms. HBV DVA is then analyzed in a quantitative and qualitative manner for overall levels of HBV DNA (both extracellular and intracellular DNA) and the relative rate of HBV replication (intracellular DNA).
Both intracellular and extracellular HBV DNA are analyzed in order to (i) allow for verification of compound efficacy and (ii) provide possible data on the target site in the HBV replication pathway for the compound from examination of the pattern of viral replicative forms. The culture medium is changed daily during the treatment period to (i) prevent the buildup of potentially toxic metabolites derived from test compounds and (ii) provide an analysis of HBV virion production during discrete 24-hour intervals which enables a quantitative comparison of any effect on virion production.
The analysis of HBV DNA is performed using blot hybridization techniques (Southern and slot blot) and [^32P]-labeled HBV-specific probes. HBV DNA levels are measured by comparison to known amounts of HBV DNA standards applied to every nitrocellulose membrane (gel or slot blot). An AMBIS beta scanner, which measures the radioactive decay of the hybridized probes directly from the nitrocellulose membranes, is used for the quantitative analysis. Standard curves, generated by multiple analyses, are used to correlate CPM measurements made by the beta scanner with relative levels of target HBV DNA. The levels of HBV virion DNA released into the culture medium are analyzed by a slot blot hybridization procedure. HBV DNA levels are then compared to those at Day 0 to determine the effect of drug treatment.
The levels of RI and episomal monomers are used as an indicator of the relative level of HBV replication. Integrated HBV DNA is used to normalize the relative amounts of DNA in each lane because the levels of this class of HBV DNA would be expected to remain constant on a per cell basis. […] Inhibition of HBV DNA replication is indicated by the loss of RI without changes in the level of integrated HBV DNA.

Assay [4] deals with Measles Virus. The assay is described as follows: Measles virus antiviral assay (CPE inhibition, neutral red uptake, virus yield). In kind it is cell-based, Measles virus strain CC. The note with it: Measles morbillivirus.
The subject of assay [5] is Rhinovirus. The assay is described as follows: Rhinovirus antiviral assay (CPE inhibition, neutral red uptake, virus yield). In kind it is cell-based. The note with it: Enterovirus.
Assay [6] concerns VZV. The assay is described as follows: VZV plaque reduction assay in human foreskin fibroblast cells. In kind it is cell-based, Varicella Zoster Virus (Ellen strain). The conditions noted are these: Human alphaherpesvirus 3, Fibroblast; read-out: Antiviral Activities (EC50) VZV. The procedure: [table] Two days prior to use, HFF cells are plated into six-well plates and incubated at 37° C. with 5% CO2 and 90% humidity. On the date of assay, the drug is made up at twice the desired concentration in 2×MEM and then serially diluted 1:5 in 2×MEM using six concentrations of drug. […] The media is then aspirated from the wells and 0.2 mL of virus is added to each well in duplicate with 0.2 mL of media being added to drug toxicity wells. The plates are then incubated for one hour with shaking every fifteen minutes. […] The drug agarose mixture is applied to each well in 2 mL volume and the plates then incubated for three days, after which the cells were stained with a 1.5% solution of neutral red. At the end of 4-6 hr incubation period, the stain is aspirated, and plaques counted using a stereomicroscope at 10× magnification. The procedure is essentially the same as for the HSV plaque assay described above with two exceptions: 1. After addition of the drug, the plates are incubated for ten days. 2.
A general note: Plaques are areas of infected cells; plaque reduction assays count them against a control.

Assay [7] concerns Respiratory Syncytial Virus. The assay is described as follows: Respiratory syncytial virus antiviral assay (CPE inhibition, neutral red uptake). In kind it is cell-based, Respiratory syncytial virus strain Utah 89. The conditions noted are these: human respiratory syncytial virus.
[8] abbreviates: CPE inhibition, read-out: Antiviral Activities (EC50) Measles (CPE).
Where [9] appears, read: neutral red (NR) dye uptake, read-out: Antiviral Activities (EC50) Measles (NR).
[10] abbreviates: CPE inhibition, read-out: Antiviral Activities (EC50) Rhinovirus (CPE).
Where [11] appears, read: neutral red (NR) dye uptake, read-out: Antiviral Activities (EC50) Rhinovirus (NR).
[12] abbreviates: CPE inhibition, read-out: Antiviral Activities (EC50) Respiratory Syncitial (CPE).
The mark [13] stands for this setting: neutral red (NR) dye uptake, read-out: Antiviral Activities (EC50) Respiratory Syncitial (NR).

≈ marks a conversion by molar mass, not a printed value. Where two headings read alike, the source gives them in different places. Where only a bound is given, the exact number is not on record here.

Regarding `CCCc1cc(=O)oc2cc(O)c(C(=O)CC)c(O)c12`, the EC50 – broadly, the concentration needed to bring the measured effect to its halfway point – in assay [1] is above 5 mg/L; in assay [2], 8.5 mg/L (≈ 30.8 µM); in assay [3], 1 mg/L (≈ 3.62 µM); in assay [4] (setting [8]) it was 3 mg/L (≈ 10.9 µM); in assay [4] (setting [9]), 0.4 mg/L (≈ 1.45 µM); in assay [5] (setting [10]), 2 mg/L (≈ 7.24 µM). Also, the EC50 in assay [5] (setting [11]) was 5 mg/L (≈ 18.1 µM); in assay [6], above 4 mg/L.

`CCCc1cc(=O)oc2c(C(=O)CC)c(O)cc(O)c12`: the EC50 was 0.33 mg/L (≈ 1.19 µM) in assay [2]; above 3 mg/L in assay [3]; 10 mg/L (≈ 36.2 µM) in assay [4] (setting [8]); above 100 mg/L in assay [4] (setting [9]); 2 mg/L (≈ 7.24 µM) in assay [7] (setting [12]); 4 mg/L (≈ 14.5 µM) in assay [7] (setting [13]). For the same compound, the EC50 was 30 mg/L (≈ 109 µM) in assay [5] (setting [10]), 28 mg/L (≈ 101 µM) in assay [5] (setting [11]) and above 0.8 mg/L in assay [6].

In the case of `CCCc1cc(=O)oc2c(C(=O)CC)c(O)c3c(c12)OC(C)(C)C=C3`, the EC50 in assay [1] was above 68 mg/L; in assay [2] it was 27 mg/L (≈ 78.9 µM); in assay [3], above 3 mg/L; in assay [4] (setting [8]) it was 20 mg/L (≈ 58.4 µM); in assay [4] (setting [9]) it was above 100 mg/L; in assay [7] (setting [12]) it was 20 mg/L (≈ 58.4 µM). The concentration giving a half-maximal response (EC50) in assay [7] (setting [13]) is 40 mg/L (≈ 117 µM); in assay [6] it was 16.1 mg/L (≈ 47 µM).

In the case of `CCCc1cc(=O)oc2cc(O[C@H](C)[C@@H](C)CO)c3c(c12)OC(C)(C)C=C3`, in assay [1], the EC50 is above 2 mg/L.

Take `CCCc1cc(=O)oc2cc(O[C@H](C)[C@@H](C)CO[Si](C)(C)C(C)(C)C)c3c(c12)OC(C)(C)C=C3`: in assay [1], the EC50 turned out to be 7.2 mg/L (≈ 14.8 µM).

As for `CCCc1cc(=O)oc2c(C(=O)C(C)(O)C(C)O)c(O)c3c(c12)OC(C)(C)C=C3` (stereo not shown), the EC50 in assay [1] is above 24 mg/L; in assay [3], above 4 mg/L; in assay [4] (setting [8]) it was 20 mg/L (≈ 49.7 µM); in assay [4] (setting [9]), 40 mg/L (≈ 99.4 µM); in assay [7] (setting [12]), 50 mg/L (≈ 124 µM); in assay [7] (setting [13]), 40 mg/L (≈ 99.4 µM). For the same compound, the EC50 in assay [5] (setting [10]) came to 0.5 mg/L (≈ 1.24 µM); in assay [5] (setting [11]) it was 1 mg/L (≈ 2.48 µM); in assay [6], 19.9 mg/L (≈ 49.4 µM).

Regarding `CCCc1cc(=O)oc2c3c(c4c(c12)OC(C)(C)[C@H](O)[C@H]4OC(=O)c1cccc(Cl)c1)O[C@H](C)[C@@H](C)[C@@H]3O`, the EC50 in assay [1] was 8.4 mg/L (≈ 15.5 µM).

For `CCCc1cc(=O)oc2cc(OC(=O)C(C)(C)C)cc(O)c12` [drawing 26], the EC50 was 1.1 mg/L (≈ 3.61 µM) in assay [2], above 3 mg/L in assay [3] and 83 mg/L (≈ 273 µM) in assay [6].
